The subject of one data set is S. aureus ATCC 6538. Nature of the data set: Minimal inhibitory concentration (MIC), broth dilution.
The test system of data set [1] is S. typhi. Description: H&E histological examination of liver and kidney, S. typhi infected rats. Type of data set: in vivo. Here is the method: (§1) Rats were divided randomly into equal fifteen groups, each containing 9 rats as follows: • Group 1: Rats were kept on standard laboratory chow and water ad libitum to serve as a control. • Group 2: Rats have injected IP with sterile distilled water (4ml/kg) daily for one week to serve as a control. • Group 3: Rats have injected IP with DEMSO (dimethyl sulfoxide) (4 ml/kg) daily for one week to serve as a control. • Group 4: Rats have injected IP with 4h (1.9 mg/kg) daily for one week. • Group 5: Rats have injected IP with 4h (3.8 mg/kg) daily for one week. • Group 6: Rats have injected IP with 4i (1.9 mg/kg) daily for one week. • Group 7: Rats have injected IP with 4i (3.8 mg/kg) daily for one week. • Group 8: Rats were infected by a single IM injection of S. aureus strain [1.0 ml) 1 × 10^7) colony-forming units]. • Group 9: Rats have injected IP with 4h (1.9 mg/kg) daily for one week on the 7th day after induction of infection by a single IM injection of S. aureus strain [1.0 ml (1 × 10^7) colony-forming units. • Group 10: Rats have injected IP with 4h (3.8 mg/kg) daily for one week on the 7th day after induction of infection by a single IM injection of S. aureus strain [1.0 ml (1 × 10^7) colony-forming units]. • Group 11: Rats were infected by a single IM injection of S. typhi strain [1.0 ml (1 × 10^7) colony forming units). • Group 12: Rats have injected IP with 4h (1.9 mg/kg) daily for one week. on the 7th day after induction of infection by a single IM injection of S. typhi strain [1.0 ml (1 × 10^7) colony-forming units]. • Group 13: Rats have injected IP with 4h (3.8 mg/kg) daily for one week on the 7th day after infection by a single IM injection of S. typhi strain [1.0 ml (1 × 10^7) colony-forming units]. • Group 14: Rats have injected IP with 4i (1.9 mg/kg) daily for one week. on the 7th day after induction of infection by a single IM injection of S. typhi strain [1.0 ml (1 × 10^7) colony-forming units]. • Group 15: Rats have injected IP with 4i (3.8 mg/kg) daily for one week. on the 7th day after induction of infection by a single IM injection of Salmonella strain [1.0 ml (1 × 10^7) colony-forming units].
(§2) At the end of the experiment, the animals were euthanized through cervical dislocation. After that, the liver and kidney were dissected for histological study. The procedure for histological preparations was described by Bancroft and Stevens[73]. Briefly, liver and kidney tissues were sliced to 3–4 mm thick, fixed in 10% neutral buffered formalin (10% NBF), dehydrated in graded concentrations of ethanol, cleared in xylene, and embedded in paraffin. The paraffin blocks were sectioned with a microtome at (4–6 μm) thickness and dyed with H & E stain to study the general tissue structure.

Another data set relates to A. baumanii ATCC 19606. Description: Minimal inhibitory concentration (MIC), broth dilution.
The subject of the next data set is Aciento MDR. The description is as above.
In another data set the test system is S. aureus. Nature of the data set: Minimal bactericidal concentration (MBC). Type of data set: cell-based. Here is the method: (§3) After determining the MIC for the target compounds, the minimal bactericidal concentration (MBC) for each compound that is required to kill each one of the above-mentioned microorganisms was assessed.
For another data set, the system named is E. coli. Description: Minimal bactericidal concentration (MBC). Type of data set: cell-based. As for the experimental part:
as §3

Data set [2] relates to S. typhi. Description: Biochemical analysis in S. typhi infected rats. Type of data set: in vivo. Here is the method: The compounds 4h and 4j were dissolved in DMSO (dimethyl sulfoxide) then further dilutions were made by using sterile distilled water. The doses of both candidates were calculated according to the method given by Paget and Barnes[60]. Sterile distilled water, DEMSO, and investigated compounds (4h (1.9 and 3.8 mg/kg) and 4j (1.9 and 3.8 mg/kg)) were injected in a volume of 4 ml/kg[61]. The experiment lasts two weeks, the 1st week for induction of infection in the infected groups and the 2nd week for the administration of the compounds in all groups. […]
ALT and AST were determined[66] using commercial kits obtained from Diamond Diagnostics, Egypt.
Serum urea was determined by using the modified Berthelot–Searcy method. Serum creatinine activity was also assessed by using the application of Jaffe’s reaction.
Serum levels of the pro-inflammatory cytokine, TNF-α, were determined by the quantitative enzyme immunoassay (EIA) kit purchased from R&D Systems (USA) according to the method of Howard and Harada[69], while that of anti-inflammatory cytokine IL-10 was according to Croft et al.. […]

Another data set deals with Acientobacter sensitive. Description: Minimal inhibitory concentration (MIC), broth dilution.
A further data set has as its system E. faecalis ATCC 29212. The description is as above.
For the next data set, the system named is E. coli ATCC 25922. Described as above.
In data set [3] the test system is E. faecalis, Acientobacter, P. auriginosa, S. aureus, S. typhi, E. coli, C. albicans. Nature of the data set: Average MIC over the nine tested microbial species (SAR). Type of data set: cell-based. The settings on record: for antimicrobial activity (SAR grading): based on MIC average values. An excerpt:
Herein, we aimed to study the structure-antimicrobial activity relationship of the newly synthesised N'-benzylidene-3,4-dimethoxybenzohydrazide derivatives based on MIC average values[51]^,[52] as represented in the supplementary data (Table SI1). Thereby, the changes in their antimicrobial potential and spectrum upon structural modifications could be unveiled, thus offering clues for structural changes that are capable of increasing the antimicrobial potential.

The subject of a further data set is P. aeruginosa ATCC10145. Description: Minimal inhibitory concentration (MIC), broth dilution.
Data set [4] is described as follows: H&E histological examination of liver and kidney, uninfected treated rats. Type of data set: in vivo. The settings on record: for liver histological structure (H&E): 1.9 and 3.8 mg/kg IP daily for one week; for kidney histological structure (H&E): low dose and high dose (1.9 and 3.8 mg/kg IP). As for the experimental part: as §1, §2
The mark [5] stands for this setting: first dose (1.9 mg/kg IP daily for one week).
Where [6] appears, read: second dose (3.8 mg/kg IP daily for one week).

Converted amounts (≈) assume the structure as drawn.

Take `COc1ccc(C(=O)NN=Cc2ccc3ccccc3n2)cc1OC` [Compound 4i, N'-(quinolin-2-ylmethylene)-3,4-dimethoxybenzohydrazide]: the MIC against S. aureus ATCC 6538 (Staphylococcus aureus, ATCC6538) worked out at 46.5 µM (≈ 15.6 µg/mL); in the data set with A. baumanii ATCC 19606 (Acinetobacter baumannii, ATCC19606), 11.6 µM (≈ 3.9 µg/mL); in the data set with Aciento MDR (Acinetobacter baumannii) it was 373 µM (≈ 125 µg/mL); in the data set with Acientobacter sensitive (Acinetobacter baumannii), 46.5 µM (≈ 15.6 µg/mL); against E. faecalis ATCC 29212 (Enterococcus faecalis, ATCC29212) it was 93.4 µM (≈ 31.3 µg/mL); in the data set with E. coli ATCC 25922 (Escherichia coli, ATCC25922) it was 23.3 µM (≈ 7.81 µg/mL). Moreover, the MIC amounted to 99.7 µM (≈ 33.4 µg/mL) in [3] (read-out: Average MIC) and 186 µM (≈ 62.5 µg/mL) against P. aeruginosa ATCC10145 (Pseudomonas aeruginosa, ATCC10145). For the same molecule, the “kidney pathological changes (H&E)” value with S. typhi [1] (high dose (3.8 mg/kg)) is on record as “marked improved renal tissue”; in the data set with S. typhi [1] (low dose (1.9 mg/kg)) it was “improved pathological changes”. Moreover, the entries for the “liver pathological changes (H&E)” value with S. typhi [1] (high dose (3.8 mg/kg)) and in the data set on S. typhi [1] (low dose (1.9 mg/kg)) were “marked improvement in the pathological changes” and “improved pathological changes”, respectively. Besides, the MBC against S. aureus (Staphylococcus aureus) and against E. coli (Escherichia coli) was 186 µM (≈ 62.5 µg/mL) each time. Also, the “renal and liver functions, oxidative stress and inflammatory markers (urea, creatinine, ALT, AST, GSH, MDA, TNF-α, IL-10)” value in the data set on S. typhi [2] (setting [5]) is “normalisation of urea, ALT, and AST”; in the data set with S. typhi [2] (setting [6]), “returning of urea, creatinine, ALT, and AST”. Also, in [3], the “antimicrobial activity (SAR grading)” value is “weaker antimicrobial potential”. The “liver histological structure (H&E)” value in data set [4] is on record as “normal histological structure”. In data set [4], the “kidney histological structure (H&E)” value is “histological structure similar to those of the control groups”.
In the case of “N'-((3a,7a-dihydro-1H-indol-3-yl)methylene)-3,4-dimethoxybenzohydrazide [Compound 4h]”, the MIC worked out at 5.88 µM in the data set with S. aureus ATCC 6538 (S. aureus (SA)); 48.28 µM with A. baumanii ATCC 19606 (Acientobacter ATCC 19606 (A A)); 193.40 µM in the data set on Aciento MDR (Aciento MDR (AM)); 24.17 µM against Acientobacter sensitive (Acientobacter sensitive (AS)); 96.87 µM against E. faecalis ATCC 29212 (E. faecalis (EF)); 48.28 µM with E. coli ATCC 25922 (E. coli (EC)). This molecule also had an MIC against P. aeruginosa ATCC10145 (P. auriginosa (PA)) of 193.40 µM. For the same molecule, the “kidney pathological changes (H&E)” value in the data set with S. typhi [1] (high dose (3.8 mg/kg)) is listed as “marked improved renal tissue”; in the data set with S. typhi [1] (low dose (1.9 mg/kg)), “improved pathological changes”. For the same molecule, the “liver pathological changes (H&E)” value in the data set with S. typhi [1] (high dose (3.8 mg/kg)) is listed as “marked improvement in the pathological changes”; in the data set on S. typhi [1] (low dose (1.9 mg/kg)), “improved pathological changes”. Moreover, the MBC with S. aureus (S. aureus) and in the data set with E. coli (E. coli) was 96.87 µM each time. Further, the “renal and liver functions, oxidative stress and inflammatory markers (urea, creatinine, ALT, AST, GSH, MDA, TNF-α, IL-10)” value is “significant improvement in all measured parameters” with S. typhi [2] (setting [5]); “returning of urea, creatinine, AST, and TNF-α to normal levels” in the data set with S. typhi [2] (setting [6]). The “Average MIC” value in data set [3] (average over nine microbial species) is reported as 112.13 µM. For the same molecule, the “antimicrobial activity (SAR grading)” value in data set [3] is “weaker antimicrobial potential”. Besides, the “liver histological structure (H&E)” value in data set [4] was “normal histological structure”. In addition, the “kidney histological structure (H&E)” value in data set [4] is “histological structure similar to those of the control groups”.

The record behind these values is PMC9037180, “Ligand-based design and synthesis of N'-Benzylidene-3,4-dimethoxybenzohydrazide derivatives as potential antimicrobial agents; evaluation by in vitro, in vivo, and in silico approaches with SAR studies” (Journal of Enzyme Inhibition and Medicinal Chemistry, 2022).
